We go through four molecules from patent publication US20240270809A1, “ORAL GLP RECEPTOR AGONISTS” (priority 2020, published 2024).

As a reminder, the amount remaining is what is left of the initial amount, in per cent. As usually defined, the Emax is the greatest response seen or fitted, relative to the assay's reference.

The nature of series [1]: Stability of peptides in Fasted-State Simulated Intestinal Fluid (FaSSIF). Type of series: in vitro ADME. To be noted: FaSSIF with 10 mg/ml pancreatin; FaSSIF pH 6.5 with 10 mg/ml pancreatin, 37° C., t = 15 mins.
Description: Stability of peptides was tested in Fasted-State Simulated Intestinal Fluid (FaSSIF) prepared according to manufacturer's protocol (Biorelevant, art.no. FFF01, pH 6.5). […] FaSSIF was pre-incubated for 15 min at 37° C. and spiked with test and reference item working solutions. Experiments were conducted in duplicate in a non-serial manner. The total incubation volume per replicate was 150 μl. Sampling time points for test items were 0, 0.5, 2, 5, 10, 15 and 30 min. All samples and calibration standards (prepared in FaSSIF) were precipitated by addition of 300 μl precipitant (ACN / 2% acetic acid / 0.2% HFBA, (precipitation reagent, PR)) containing internal standard (ISTD) to 150 μl sample. After incubation for 1 h at room temperature all samples were centrifuged for 10 min at 2,200×g (room temperature).
A further series deals with T1, human GLP2 receptor (Homo sapiens, UniProt O95838).
T1 construct: expressed in transfected cells; host or cells: HEK cells, BacMam virus transduction
T1 sequence (O95838 1-553): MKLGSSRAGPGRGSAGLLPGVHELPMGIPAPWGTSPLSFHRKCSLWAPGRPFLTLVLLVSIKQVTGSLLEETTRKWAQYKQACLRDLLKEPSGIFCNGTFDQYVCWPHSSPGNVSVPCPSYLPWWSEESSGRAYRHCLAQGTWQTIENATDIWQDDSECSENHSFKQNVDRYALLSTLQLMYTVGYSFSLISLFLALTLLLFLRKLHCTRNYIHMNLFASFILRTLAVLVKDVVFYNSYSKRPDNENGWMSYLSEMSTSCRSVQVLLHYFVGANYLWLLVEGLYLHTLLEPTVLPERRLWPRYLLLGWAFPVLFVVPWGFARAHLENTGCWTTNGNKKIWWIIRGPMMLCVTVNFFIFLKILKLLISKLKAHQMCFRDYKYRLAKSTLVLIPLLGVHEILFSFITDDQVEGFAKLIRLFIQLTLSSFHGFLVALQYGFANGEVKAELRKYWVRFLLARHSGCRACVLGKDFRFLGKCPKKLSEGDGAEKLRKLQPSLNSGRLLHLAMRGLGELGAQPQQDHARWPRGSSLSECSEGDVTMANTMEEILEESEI
Description: cAMP accumulation assay, functional agonism of human GLP2 receptor. Type of series: cell-based. To be noted: HEK cells infected with human GLP2 receptor BacMam virus, HTRF cAMP; for Emax: HEK293, read-out: Human GLP-2R agonist cAMP Emax; for EC50: read-out: Human GLP-2R agonist cAMP pEC50 (converted). In short, it runs like this:
(§1)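 cAMP read by HTRF detection reagents in lysis buffer following 45 min agonist exposure at 37 °C. Cells: frozen HEK transduced for 24 h with GLP1 or GLP2 receptor BacMam, suspended in HBSS plus 0.5 mM IBMX.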
Background: Cyclic AMP is a second messenger, typically raised through Gs and lowered through Gi signalling.

A further series addresses T2, human GLP1 receptor (Homo sapiens, UniProt P43220).
T2 construct: expressed in transfected cells; host or cells: HEK cells, BacMam virus transduction
Description: cAMP accumulation assay, functional agonism of human GLP1 receptor. Type of series: cell-based. To be noted: HEK cells infected with human GLP1 receptor BacMam virus, HTRF cAMP; for Emax: HEK293, read-out: Human GLP-1R agonist cAMP Emax; for EC50: read-out: Human GLP-1R agonist cAMP pEC50 (converted). The method in brief:
as §1

The next series addresses T3, mouse GLP1 receptor (Mus musculus, UniProt O35659).
T3 construct: expressed in transfected cells; host or cells: HEK cells, transient transfection with GeneJuice
T3 sequence (O35659 22-463): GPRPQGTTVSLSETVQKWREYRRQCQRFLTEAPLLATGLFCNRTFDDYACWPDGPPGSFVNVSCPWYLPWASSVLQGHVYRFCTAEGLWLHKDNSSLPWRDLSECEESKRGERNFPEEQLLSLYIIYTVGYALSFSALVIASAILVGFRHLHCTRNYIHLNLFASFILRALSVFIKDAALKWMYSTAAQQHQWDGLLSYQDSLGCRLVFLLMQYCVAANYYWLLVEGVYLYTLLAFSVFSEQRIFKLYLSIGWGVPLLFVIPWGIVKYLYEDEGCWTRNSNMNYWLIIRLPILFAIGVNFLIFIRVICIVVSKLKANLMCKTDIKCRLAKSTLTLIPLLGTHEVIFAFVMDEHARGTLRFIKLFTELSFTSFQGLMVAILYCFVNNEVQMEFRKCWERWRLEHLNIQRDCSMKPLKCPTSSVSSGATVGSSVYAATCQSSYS
Description: cAMP accumulation assay, functional agonism of mouse GLP1 receptor. To be noted: HEK cells transiently transfected with mouse GLP1 receptor, HTRF cAMP; for Emax: HEK293, read-out: Mouse GLP-1R agonist cAMP Emax; for EC50: read-out: Mouse GLP-1R agonist cAMP pEC50 (converted). Type of series: cell-based.

The target in another series is T4, mouse GLP2 receptor (Mus musculus, UniProt Q5IXF8).
T4 construct: expressed in transfected cells; host or cells: HEK cells, transient transfection with GeneJuice
T4 sequence (Q5IXF8 1-512): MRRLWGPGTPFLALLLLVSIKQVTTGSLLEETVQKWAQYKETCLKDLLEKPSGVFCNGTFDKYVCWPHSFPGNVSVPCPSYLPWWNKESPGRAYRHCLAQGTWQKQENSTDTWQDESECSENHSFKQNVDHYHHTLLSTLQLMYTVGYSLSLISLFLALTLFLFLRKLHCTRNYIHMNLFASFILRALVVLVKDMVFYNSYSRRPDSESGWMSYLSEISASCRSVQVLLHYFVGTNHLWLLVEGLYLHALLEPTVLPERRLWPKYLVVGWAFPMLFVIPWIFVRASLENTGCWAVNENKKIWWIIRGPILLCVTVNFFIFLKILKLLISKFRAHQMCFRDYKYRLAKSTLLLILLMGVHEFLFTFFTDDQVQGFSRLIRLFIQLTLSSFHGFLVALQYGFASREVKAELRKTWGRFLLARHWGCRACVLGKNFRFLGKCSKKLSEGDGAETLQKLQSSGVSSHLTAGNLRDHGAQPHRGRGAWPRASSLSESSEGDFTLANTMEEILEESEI
Description: cAMP accumulation assay, functional agonism of mouse GLP2 receptor. The conditions noted are these: HEK cells transiently transfected with mouse GLP2 receptor, HTRF cAMP; for Emax: HEK293, read-out: Mouse GLP-2R agonist cAMP Emax; for EC50: read-out: Mouse GLP-2R agonist cAMP pEC50 (converted). Type of series: cell-based. The method in brief:
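pEC50 values come from four-parameter fits of HTRF cAMP signal, read after lysis and 1 h RT incubation. Compounds were incubated 45 min at 37 °C with previously frozen, transiently transfected HEK cells (8000/well) in HBSS containing 0.5 mM IBMX.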

Positions of bridges follow the written chain, without caps; N, C: chain ends. Non-standard residues stand in square brackets, D forms with d. Residues, ends and D or L forms follow the SMILES beside them. Nle = CCCC[C@H](N)C(=O)O; Aib = CC(C)(N)C(=O)O

T2 sequence (P43220 24-463): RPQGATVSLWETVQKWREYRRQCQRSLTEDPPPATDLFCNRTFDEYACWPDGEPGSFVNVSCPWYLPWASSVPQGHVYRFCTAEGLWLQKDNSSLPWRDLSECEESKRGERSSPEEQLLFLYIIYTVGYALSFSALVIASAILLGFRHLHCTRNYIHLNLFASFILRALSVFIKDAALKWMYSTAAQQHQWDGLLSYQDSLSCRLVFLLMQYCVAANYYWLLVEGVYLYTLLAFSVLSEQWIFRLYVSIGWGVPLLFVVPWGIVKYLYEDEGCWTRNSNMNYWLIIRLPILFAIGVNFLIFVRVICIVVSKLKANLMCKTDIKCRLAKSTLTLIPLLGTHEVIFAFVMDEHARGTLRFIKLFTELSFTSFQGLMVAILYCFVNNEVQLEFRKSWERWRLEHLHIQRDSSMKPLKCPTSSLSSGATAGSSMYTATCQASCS
Description for mouse GLP1 receptor: CAMP production upon agonist stimulation of mouse GLP2 or GLP1 receptors was assessed utilizing HiRange cAMP kit (Cisbio). In brief, HEK cells were transiently transfected for 24 hours with cDNA using GeneJuice Transfection reagent (EMD Millipore) and frozen at −80° C. for later use in the assay. […] Cells were prepared in the assay buffer (HBSS (Lonza) supplemented with 0.5 mM IBMX (Tocris)). After 45 min incubation at 37° C., the reaction was stopped by addition of the HTRF detection reagents in the lysis buffer provided in the kit. Following 1-hour incubation at RT, plates were read on Pherastar FS (BMG Labtech, Inc.) using standard HTRF settings. Dotmatics Studies software was used for calculation of pEC50 values by fitting data to a four-parameter concentration response curve.

Regarding `CCCC[C@H](NC(=O)[C@H](CCC(=O)O)NC(=O)[C@H](CC(=O)O)NC(=O)[C@H](CO)NC(=O)[C@H](Cc1ccccc1)NC(=O)[C@H](CO)NC(=O)CNC(=O)[C@H](CC(=O)O)NC(=O)C(C)(C)NC(=O)[C@@H](N)Cc1c[nH]cn1)C(=O)N[C@H](Cc1ccccc1)C(=O)N[C@H]1CCCCNC(=O)C[C@@H](C(=O)N[C@@H](CCCCN)C(=O)N[C@@H](C)C(=O)N[C@@H](C)C(=O)N[C@@H](CCCCN)C(=O)N[C@@H](CC(=O)O)C(=O)N[C@@H](Cc2ccccc2)C(=O)N[C@H](C(=O)N[C@@H](CC(N)=O)C(=O)N[C@@H](Cc2c[nH]c3ccccc23)C(=O)N[C@@H](CC(C)C)C(=O)N[C@H](C(=O)N[C@@H](CCC(N)=O)C(=O)N[C@H](C(=O)N[C@@H](CCCCN)C(=O)N[C@H](C(=O)N[C@H](C(=O)N[C@@H](CC(=O)O)C(N)=O)[C@@H](C)O)[C@@H](C)CC)[C@@H](C)O)[C@@H](C)CC)[C@@H](C)CC)NC(=O)[C@H](CC(=O)O)NC(=O)[C@H](CC(C)C)NC(=O)[C@H]([C@@H](C)CC)NC1=O` [Example 88] (H-H[Aib]DGSFSDE[Nle][dF]KILDDKAAKDFINWLIQTKITD-NH2; lactam 12-16), in series [1], the fraction remaining at 0.25 h was 0.5%. For the same molecule, the Emax at human GLP2 receptor came out at 102%; on human GLP1 receptor, 99.2%; at mouse GLP1 receptor, 96.4%; on mouse GLP2 receptor it was 98.7%. Also, the EC50 on human GLP2 receptor was 0.00316 nM; at human GLP1 receptor, 1.26 nM; on mouse GLP1 receptor it was 0.1 nM; on mouse GLP2 receptor, 0.00631 nM.
On to `CCCC[C@H](NC(=O)[C@H](CCC(=O)O)NC(=O)[C@H](CC(=O)O)NC(=O)[C@H](CO)NC(=O)[C@H](Cc1ccccc1)NC(=O)[C@H](CO)NC(=O)CNC(=O)[C@H](CC(=O)O)NC(=O)C(C)(C)NC(=O)[C@@H](N)Cc1c[nH]cn1)C(=O)N[C@H](Cc1ccccc1)C(=O)N[C@H](C(=O)N[C@H](C(=O)N[C@@H](CC(C)C)C(=O)N[C@@H](CC(=O)O)C(=O)N[C@H]1CCC(=O)NCCCC[C@@H](C(=O)N[C@@H](CC(=O)O)C(=O)N[C@@H](Cc2ccccc2)C(=O)N[C@H](C(=O)N[C@@H](CC(N)=O)C(=O)N[C@@H](Cc2c[nH]c3ccccc23)C(=O)N[C@@H](CC(C)C)C(=O)N[C@H](C(=O)N[C@@H](CCC(N)=O)C(=O)N[C@H](C(=O)N[C@@H](CCCCN)C(=O)N[C@H](C(=O)N[C@H](C(=O)N[C@@H](CC(=O)O)C(N)=O)[C@@H](C)O)[C@@H](C)CC)[C@@H](C)O)[C@@H](C)CC)[C@@H](C)CC)NC(=O)[C@H](C)NC(=O)[C@H](C)NC(=O)[C@H](CCCCN)NC1=O)[C@@H](C)CC)[C@@H](C)O` [Example 89] (H-H[Aib]DGSFSDE[Nle][dF]TILDEKAAKDFINWLIQTKITD-NH2; lactam 16-20 (inferred); C-terminus assumed), for which the amount remaining at 0.25 h in series [1] is 10.5%. The Emax at human GLP2 receptor came out at 102%; at human GLP1 receptor, 99.6%; on mouse GLP1 receptor it was 94.5%; on mouse GLP2 receptor it was 98.4%. In addition, the EC50 was 0.00251 nM on human GLP2 receptor, 3.16 nM on human GLP1 receptor, 0.794 nM at mouse GLP1 receptor and 0.00631 nM at mouse GLP2 receptor.
As to `CCCC[C@H](NC(=O)[C@H](CCC(=O)O)NC(=O)[C@H](CC(=O)O)NC(=O)[C@H](CO)NC(=O)[C@H](Cc1ccccc1)NC(=O)[C@H](CO)NC(=O)CNC(=O)[C@H](CC(=O)O)NC(=O)C(C)(C)NC(=O)[C@@H](N)Cc1c[nH]cn1)C(=O)N[C@H](Cc1ccccc1)C(=O)N[C@H](C(=O)N[C@H](C(=O)N[C@@H](CC(C)C)C(=O)N[C@@H](CC(=O)O)C(=O)N[C@@H](CC(C)C)C(=O)N[C@@H](CCCCN)C(=O)N[C@@H](C)C(=O)N[C@@H](C)C(=O)N[C@@H](CCCCN)C(=O)N[C@@H](CC(=O)O)C(=O)N[C@@H](Cc1ccccc1)C(=O)N[C@H](C(=O)N[C@@H](CC(N)=O)C(=O)N[C@@H](Cc1c[nH]c2ccccc12)C(=O)N[C@@H](CC(C)C)C(=O)N[C@H](C(=O)N[C@@H](CCC(N)=O)C(=O)N[C@H]1CCCCNC(=O)CC[C@@H](C(N)=O)NC(=O)[C@H]([C@@H](C)O)NC(=O)[C@H]([C@@H](C)CC)NC(=O)[C@H](CCCCN)NC1=O)[C@@H](C)CC)[C@@H](C)CC)[C@@H](C)CC)[C@@H](C)O` [Example 93] (H-H[Aib]DGSFSDE[Nle][dF]TILDLKAAKDFINWLIQKKITE-NH2; lactam 29-33; N-terminus and C-terminus assumed), the share remaining at 0.25 h in series [1] was 13.5%. Besides, the Emax on human GLP2 receptor was found to be 98.6%; on human GLP1 receptor, 95.3%; at mouse GLP1 receptor, 95.5%; at mouse GLP2 receptor it was 98.5%. Further, the EC50 is 0.00501 nM on human GLP2 receptor, 3.98 nM on human GLP1 receptor, 2.51 nM on mouse GLP1 receptor and 0.251 nM at mouse GLP2 receptor.
Consider `CCCC[C@H](NC(=O)[C@H](CCC(=O)O)NC(=O)[C@H](CC(=O)O)NC(=O)[C@H](CO)NC(=O)[C@H](Cc1ccccc1)NC(=O)[C@H](CO)NC(=O)CNC(=O)[C@H](CC(=O)O)NC(=O)C(C)(C)NC(=O)[C@@H](N)Cc1c[nH]cn1)C(=O)N[C@H](Cc1ccccc1)C(=O)N[C@H](C(=O)N[C@H](C(=O)N[C@@H](CC(C)C)C(=O)N[C@@H](CC(=O)O)C(=O)N[C@H]1CCCCNC(=O)CC[C@@H](C(=O)N[C@@H](CC(=O)O)C(=O)N[C@@H](Cc2ccccc2)C(=O)N[C@H](C(=O)N[C@@H](CC(N)=O)C(=O)N[C@@H](Cc2c[nH]c3ccccc23)C(=O)N[C@@H](CC(C)C)C(=O)N[C@H](C(=O)N[C@@H](CCC(N)=O)C(=O)N[C@H]2CCCCNC(=O)CC[C@@H](C(N)=O)NC(=O)[C@H]([C@@H](C)O)NC(=O)[C@H]([C@@H](C)CC)NC(=O)[C@H](CCCCN)NC2=O)[C@@H](C)CC)[C@@H](C)CC)NC(=O)[C@H](C)NC(=O)[C@H](C)NC(=O)[C@H](CCCCN)NC1=O)[C@@H](C)CC)[C@@H](C)O` [Example 113] (H-H[Aib]DGSFSDE[Nle][dF]TILDKKAAEDFINWLIQKKITE-NH2; lactam 16-20, 29-33; C-terminus assumed), for which, in series [1], the share remaining at 0.25 h was 3.4%. The maximum response (Emax) stood at 101% at human GLP2 receptor, 97% at human GLP1 receptor, 96.3% at mouse GLP1 receptor and 99.2% at mouse GLP2 receptor. In addition, the EC50 at human GLP2 receptor is 0.00316 nM; on human GLP1 receptor, 2 nM; at mouse GLP1 receptor, 1.58 nM; on mouse GLP2 receptor it was 0.2 nM.
